“And” between values parts separate entries of the source, which are not always exact repeats. Equal entries are not always repeated.
System: 556581-035-R-J1-PDC complex spheroid growth
Assay: Anticancer human tumor 556581-035-R-J1-PDC patient-derived ovarian carcinoma cell line growth inhibition [AhR]
Details: for viability, T/C: stronger effect = lower value
Excerpt: Multicellular complex tumor spheroid response to aryl hydrocarbon receptor antagonists in combination with a variety of drugs and investigational agents in selected tumor cell lines
The current study was undertaken to assess response to aryl hydrocarbon receptor antagonists in combination with standard-of-care drugs and investigational agents in solid tumor complex spheroid models. Complex spheroids include a stromal component modeled by human endothelial cells (HUVEC) and fibroblasts modeled by human mesenchymal stem cells (MSCs). The concentration ranges selected for each drug and investigational agent were based upon clinically achievable concentrations if the clinical Cmax of the agent was known.
Compounds. The drugs and investigational agents: BAY 2416964 (NSC825713), GNF351 (NSC835774), CH-223191 (NSC835775), CPI-455 (NSC825282), aza-TdCyd (NSC777586), decitabine (NSC127716), belinostat (NSC758774), entinostat (NSC756642), pevonedistat (NSC761192), tazemetostat (NSC777109), talazoparib (NSC765396), olaparib (NSC753686), selinexor (NSC780203), nedisertib (M3814, NSC802822), bortezomib (NSC756655), venetoclax (NSC766270), doxorubicin (NSC123127), elimusertib (BAY189344, NSC800525), ceralasertib (AZD6738, NSC777638), TAK-243 (NSC785004), alisertib (NSC759677), etoposide (NSC141540), topotecan (NSC609699), eribulin (NSC707389), gemcitabine (NSC613327), carboplatin (NSC241240), cisplatin (NSC119875), and SN-38 (NSC673596) were obtained from the National Cancer Institute (NCI) Developmental Therapeutics Program Chemical Repository (32). The FDA-approved anticancer drug set is available from the Developmental Therapeutics Program at https://dtp.cancer.gov/organization/dscb/obtaining/available plates.htm. […] The stock solutions were prepared in dimethyl sulfoxide (DMSO, Sigma-Aldrich, St. Louis, MO, cat. D2650), except for the platinum compounds which were prepared in saline (Quality Biological, Gaithersburg, MD, cat. 114-055-101), at 800-fold the tested concentration and stored at -70 degrees C prior to their use. All drugs and investigational agents were tested over a range starting from a high concentration at or near the clinical Cmax and decreasing in half-log increments. If the clinical Cmax for an agent had not been determined, the highest concentration tested was 10 microM (Table 1).
Cell Culture. All cells were maintained in an incubator at 37 degrees C and 5% CO2 with 95% humidity. The PDC lines were cultured according to standard operating procedures established by the NCI PDMR (https://pdmr.cancer.gov). Briefly, all PDCs were thawed and cultured in Matrigel-coated flasks prepared with a working solution of 1X Ham's F-12 nutrient mix, without supplementation (Invitrogen, Waltham, MA, cat. 11765054), 100 U/mL penicillin-streptomycin (Invitrogen, cat. 15140122), and 2.5% Matrigel (Corning Inc., Corning, NY, cat. 354248) for the first three passages. All PDCs were cultured in complete DMEM/F-12 media containing advanced DMEM/F-12 (Invitrogen, cat. 12634028), 4.9% defined fetal bovine serum, heat inactivated (HyClone Laboratories Inc., Logan, UT, cat. SH30070.03HI), 389 ng/mL hydrocortisone (Sigma-Aldrich, cat. H4001), 9.7 ng/mL human EGF recombinant protein (Invitrogen, cat. PHG0313), 23.4 microg/mL adenine (Sigma-Aldrich, cat. A2786), 97.3 U/mL penicillin-streptomycin (Invitrogen, cat. 15140122), 1.9 mM L-glutamine (Invitrogen, cat. 25030081), and 9.7 microM Y-27632 dihydrochloride (Tocris Bioscience, Bristol, United Kingdom, cat. 1254). The PDCs were cultured in complete DMEM/F12 media without 10 microM Y-27632 dihydrochloride for at least two passages prior to the screen. The established cell lines NCI-H1341 and […] were cultured in DMEM/F-12, HEPES (Invitrogen, cat. 11330032), 5% defined fetal bovine serum (HyClone Laboratories Inc., cat. SH30070.03), ITS premix universal culture supplement [insulin (5 microg/mL), transferrin (5 microg/mL), and selenious acid (5 ng/mL)] […]

[1] = curve of first compound, second compound 0.1 µM
[2] = curve of first compound, second compound 0.316 µM
[3] = curve of first compound, second compound 1 µM
[4] = curve of first compound, second compound 3.16 µM
[5] = curve of first compound, second compound 10 µM
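Throughout, for viability, T/C: compound exposure lasted 7 days; 100% = DMSO vehicle control growth.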

Nc1ccccc1NC(=O)c1ccc(CNC(=O)OCc2cccnc2)cc1 + Cc1cncc(-c2nc(NCCc3c[nH]c4ccccc34)c3ncn(C(C)C)c3n2)c1
IC50 [1]: 2770 nM | IC50 [2]: 2420 nM | IC50 [3]: 2530 nM | IC50 [4]: 1940 nM | IC50 [5]: 791 nM | viability, T/C (second compound 0.1 µM, first compound 0.0316 µM): 106% | viability, T/C (second compound 0.1 µM, first compound 0.1 µM): 100% | viability, T/C (second compound 0.1 µM, first compound 0.316 µM): 93.7% | viability, T/C (second compound 0.1 µM, first compound 1 µM): 76.3% | viability, T/C (second compound 0.1 µM, first compound 3.16 µM): 46.2% | viability, T/C (second compound 0.1 µM, first compound 10 µM): 19.3% | viability, T/C (second compound 0.316 µM, first compound 0.0316 µM): 107% | viability, T/C (second compound 0.316 µM, first compound 0.1 µM): 121% | viability, T/C (second compound 0.316 µM, first compound 0.316 µM): 102% | viability, T/C (second compound 0.316 µM, first compound 1 µM): 78.5% | viability, T/C (second compound 0.316 µM, first compound 3.16 µM): 42% | viability, T/C (second compound 0.316 µM, first compound 10 µM): 19.7% | viability, T/C (second compound 1 µM, first compound 0.0316 µM): 108% | viability, T/C (second compound 1 µM, first compound 0.1 µM): 107% | viability, T/C (second compound 1 µM, first compound 0.316 µM): 89.5% | viability, T/C (second compound 1 µM, first compound 1 µM): 77% | viability, T/C (second compound 1 µM, first compound 3.16 µM): 42.2% | viability, T/C (second compound 1 µM, first compound 10 µM): 22.2% | viability, T/C (second compound 3.16 µM, first compound 0.0316 µM): 93% | viability, T/C (second compound 3.16 µM, first compound 0.1 µM): 99.2% | viability, T/C (second compound 3.16 µM, first compound 0.316 µM): 98.7% | viability, T/C (second compound 3.16 µM, first compound 1 µM): 67% | viability, T/C (second compound 3.16 µM, first compound 3.16 µM): 37.6% | viability, T/C (second compound 3.16 µM, first compound 10 µM): 18.1% | viability, T/C (second compound 10 µM, first compound 0.0316 µM): 79% | viability, T/C (second compound 10 µM, first compound 0.1 µM): 87% | viability, T/C (second compound 10 µM, first compound 0.316 µM): 64.5% | viability, T/C (second compound 10 µM, first compound 1 µM): 47.1% | viability, T/C (second compound 10 µM, first compound 3.16 µM): 22.8% | viability, T/C (second compound 10 µM, first compound 10 µM): 14.7%

CCc1c2c(nc3ccc(O)cc13)-c1cc3c(c(=O)n1C2)COC(=O)[C@]3(O)CC + Cc1cncc(-c2nc(NCCc3c[nH]c4ccccc34)c3ncn(C(C)C)c3n2)c1
IC50 [1]: 14.8 nM | IC50 [2]: 15.4 nM | IC50 [3]: 13.7 nM | IC50 [4]: 18.5 nM | IC50 [5]: 16.8 nM | viability, T/C (second compound 0.1 µM, first compound 0.000949 µM): 91.8% | viability, T/C (second compound 0.1 µM, first compound 0.003 µM): 86.4% | viability, T/C (second compound 0.1 µM, first compound 0.00949 µM): 56.4% | viability, T/C (second compound 0.1 µM, first compound 0.03 µM): 36% | viability, T/C (second compound 0.1 µM, first compound 0.0949 µM): 17.5% | viability, T/C (second compound 0.1 µM, first compound 0.3 µM): 10.5% | viability, T/C (second compound 0.316 µM, first compound 0.000949 µM): 97.3% | viability, T/C (second compound 0.316 µM, first compound 0.003 µM): 89.2% | viability, T/C (second compound 0.316 µM, first compound 0.00949 µM): 55.7% | viability, T/C (second compound 0.316 µM, first compound 0.03 µM): 40% | viability, T/C (second compound 0.316 µM, first compound 0.0949 µM): 14.4% | viability, T/C (second compound 0.316 µM, first compound 0.3 µM): 10.8% | viability, T/C (second compound 1 µM, first compound 0.000949 µM): 101% | viability, T/C (second compound 1 µM, first compound 0.003 µM): 90.2% | viability, T/C (second compound 1 µM, first compound 0.00949 µM): 60.6% | viability, T/C (second compound 1 µM, first compound 0.03 µM): 27.1% | viability, T/C (second compound 1 µM, first compound 0.0949 µM): 16.2% | viability, T/C (second compound 1 µM, first compound 0.3 µM): 9.89% | viability, T/C (second compound 3.16 µM, first compound 0.000949 µM): 84.2% | viability, T/C (second compound 3.16 µM, first compound 0.003 µM): 90.8% | viability, T/C (second compound 3.16 µM, first compound 0.00949 µM): 65.4% | viability, T/C (second compound 3.16 µM, first compound 0.03 µM): 38.8% | viability, T/C (second compound 3.16 µM, first compound 0.0949 µM): 14.6% | viability, T/C (second compound 3.16 µM, first compound 0.3 µM): 13.8% | viability, T/C (second compound 10 µM, first compound 0.000949 µM): 81.5% | viability, T/C (second compound 10 µM, first compound 0.003 µM): 73.8% | viability, T/C (second compound 10 µM, first compound 0.00949 µM): 63% | viability, T/C (second compound 10 µM, first compound 0.03 µM): 37.7% | viability, T/C (second compound 10 µM, first compound 0.0949 µM): 17.2% | viability, T/C (second compound 10 µM, first compound 0.3 µM): 9.08%

COc1ccc([C@@H](O)c2cc(-c3ncnc4cc(N5CCOCC5)ccc34)c(F)cc2Cl)nn1
viability, T/C (compound 0.0316 µM): 96.5% and 101% and 108% | viability, T/C (compound 0.1 µM): 106% and 98.1% and 104% | viability, T/C (compound 0.316 µM): 88.7% and 93.8% and 94.7% | viability, T/C (compound 1 µM): 76.4% and 70% and 71.3% | viability, T/C (compound 3.16 µM): 58.4% and 59.2% and 52.1% | viability, T/C (compound 10 µM): 45.5% and 37.5% and 38.9% | IC50 (curve of compound): 6680 nM and 4700 nM and 3460 nM

From PubChem BioAssay AID1918999 (Molecular Pharmacology Branch, DTP, NCI, 2023)
